In the supplement of paper PMC11061612:

Columns and labels:
[1] = test system: HCC-44 (Lung Adenocarcinoma); assay: Bliss excess, mean over the matrix (fraction); higher = more synergy
How it was run: (§1)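 Bliss excess equals the observed combination effect minus the expected value EA + EB − EA·EB, where EA and EB are the effects of each agent alone. Combination Emax is the second-highest inhibition within the matrix. Inhibition was scaled from CellTiter-Glo 2.0 luminescence, with 0 set by vehicle wells and 1 by blank wells, after 72 hours of two-drug dosing of cells plated in 1536-well plates.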

[2] = test system: HCC-44 (Lung Adenocarcinoma); assay: combination Emax (second highest fraction inhibited in the dose matrix, 72 h); higher = more inhibition; extreme values may be limits of the assay
How it was run: as §1

[3] = test system: NCI-H810 (Non-Small Cell Lung Carcinoma); assay: as above
How it was run: as §1

[4] = test system: OVTOKO (Ovarian Carcinoma); assay: as above
How it was run: as §1

[5] = test system: SK-MM-2 (Plasma Cell Myeloma); assay: as above
How it was run: as §1

[6] = test system: SNU-175 (Colorectal Carcinoma); assay: as above
How it was run: as §1

Structure (SMILES) | Bliss excess [1] | combination Emax [2] | combination Emax [3] | combination Emax [4] | combination Emax [5] | combination Emax [6]
CN(C)CCCOc1ccc(-c2ccc3ncc4c(c3c2)n(C2CCOCC2)c(=O)n4C)cn1 [AZD0156] + O=C(c1cc(Cc2n[nH]c(=O)c3ccccc23)ccc1F)N1CCN(C(=O)C2CC2)CC1 [Olaparib] (first compound max 3 µM, partner max 3 µM) | 0.0947 | 0.456 | 0.306 | 0.33 | 0.348 | 0.553
C=CCn1c(=O)c2cnc(Nc3ccc(N4CCN(C)CC4)cc3)nc2n1-c1cccc(C(C)(C)O)n1 [AZD1775] + C1CN(CCC1(C(=O)N[C@@H](CCO)C2=CC=C(C=C2)Cl)N)C3=NC=NC4=C3C=CN4 [Capivasertib] (first compound max 3 µM, partner max 3 µM) | -0.0109 | 0.844 | 0.873 | 0.594 | 0.501 | 0.917
COc1nnc2ccc(N3CCC(c4ccc(OCCN5CCN(C)C(=O)[C@H]5C)cc4)CC3)nn12 [AZD5153] + C=CCn1c(=O)c2cnc(Nc3ccc(N4CCN(C)CC4)cc3)nc2n1-c1cccc(C(C)(C)O)n1 [AZD1775] (first compound max 1 µM, partner max 1 µM) | -0.0787 | 0.63 | 0.8 | 0.622 | 0.878 | 0.813
COc1nnc2ccc(N3CCC(c4ccc(OCCN5CCN(C)C(=O)[C@H]5C)cc4)CC3)nn12 [AZD5153] + CC1(C)CCC(CN2CCN(c3ccc(C(=O)NS(=O)(=O)c4ccc(NCC5CCOCC5)c([N+](=O)[O-])c4)c(Oc4cnc5[nH]ccc5c4)c3)CC2)=C(c2ccc(Cl)cc2)C1 [Venetoclax] (first compound max 1 µM, 7x7, partner max 1 µM) | -0.0395 | 0.615 | 0.583 | 0.507 | 1 | 0.665
COc1nnc2ccc(N3CCC(c4ccc(OCCN5CCN(C)C(=O)[C@H]5C)cc4)CC3)nn12 [AZD5153] + CCN(CCO)CCCOc1ccc2c(Nc3cc(CC(=O)Nc4cccc(F)c4)[nH]n3)ncnc2c1 [AZD2811] (first compound max 1 µM, 7x7, partner max 1 µM) | -0.0338 | 0.617 | 0.694 | 0.539 | 0.908 | 0.83
COc1nnc2ccc(N3CCC(c4ccc(OCCN5CCN(C)C(=O)[C@H]5C)cc4)CC3)nn12 [AZD5153] + C[C@@H]1COCCN1C2=NC(=NC(=C2)C3(CC3)[S@](=N)(=O)C)C4=C5C=CNC5=NC=C4 [AZD6738] (first compound max 1 µM, 7x7, partner max 10 µM) | 0.0139 | 0.726 | 0.795 | 0.661 | 0.917 | 0.883
COc1nnc2ccc(N3CCC(c4ccc(OCCN5CCN(C)C(=O)[C@H]5C)cc4)CC3)nn12 [AZD5153] + Cc1c2c(nn1C)CSCc1cc(n(C)n1)CSc1cc(c3ccccc3c1)OCCCc1c(C(=O)O)n(C)c3c-2c(Cl)ccc13 [AZD5991] (first compound max 1 µM, 7x7, partner max 1 µM) | -0.0332 | 0.756 | 0.995 | 0.531 | 0.93 | 0.931
COc1nnc2ccc(N3CCC(c4ccc(OCCN5CCN(C)C(=O)[C@H]5C)cc4)CC3)nn12 [AZD5153] + Cn1cnc2c(F)c(Nc3ccc(Br)cc3Cl)c(C(=O)NOCCO)cc21 [Selumetinib] (first compound max 1 µM, 7x7, partner max 10 µM) | 0.0636 | 0.728 | 0.587 | 0.471 | 0.963 | 0.742
NC1(C(=O)N[C@@H](CCO)c2ccc(Cl)cc2)CCN(c2ncnc3[nH]ccc23)CC1 [Capivasertib] + CC(=O)c1c(C)c2cnc(Nc3ccc(N4CCNCC4)cn3)nc2n(C2CCCC2)c1=O [Palbociclib] (first compound max 10 µM, 7x7, partner max 10 µM) | -0.0161 | 0.641 | 0.141 | 0.572 | 0.409 | 0.634
NC1(C(=O)N[C@@H](CCO)c2ccc(Cl)cc2)CCN(c2ncnc3[nH]ccc23)CC1 [Capivasertib] + CC(C)n1c(=O)n(C)c2cnc3cc(F)c(-c4ccc(OCCCN5CCCCC5)nc4)cc3c21 [AZD1390] (first compound max 10 µM, 7x7, partner max 0.3 µM) | -0.0359 | 0.602 | 0.166 | 0.516 | 0.243 | 0.269
NC1(C(=O)N[C@@H](CCO)c2ccc(Cl)cc2)CCN(c2ncnc3[nH]ccc23)CC1 [Capivasertib] + CCN(CCO)CCCOc1ccc2c(Nc3cc(CC(=O)Nc4cccc(F)c4)[nH]n3)ncnc2c1 [AZD2811] (first compound max 10 µM, 7x7, partner max 1 µM) | -0.0388 | 0.663 | 0.534 | 0.568 | 0.239 | 0.846
NC1(C(=O)N[C@@H](CCO)c2ccc(Cl)cc2)CCN(c2ncnc3[nH]ccc23)CC1 [Capivasertib] + COc1nnc2ccc(N3CCC(c4ccc(OCCN5CCN(C)C(=O)[C@H]5C)cc4)CC3)nn12 [AZD5153] (first compound max 10 µM, 7x7, partner max 1 µM) | -0.0278 | 0.704 | 0.582 | 0.604 | 0.887 | 0.649
NC1(C(=O)N[C@@H](CCO)c2ccc(Cl)cc2)CCN(c2ncnc3[nH]ccc23)CC1 [Capivasertib] + C[C@@H]1COCCN1C2=NC(=NC(=C2)C3(CC3)[S@](=N)(=O)C)C4=C5C=CNC5=NC=C4 [AZD6738] (first compound max 10 µM, 7x7, partner max 10 µM) | -0.0298 | 0.661 | 0.648 | 0.628 | 0.302 | 0.709
NC1(C(=O)N[C@@H](CCO)c2ccc(Cl)cc2)CCN(c2ncnc3[nH]ccc23)CC1 [Capivasertib] + Cn1cnc2c(F)c(Nc3ccc(Br)cc3Cl)c(C(=O)NOCCO)cc21 [Selumetinib] (first compound max 10 µM, 7x7, partner max 10 µM) | 0.106 | 0.824 | 0.139 | 0.565 | 0.36 | 0.534
Cc1nc(Nc2ncc(C(=O)Nc3c(C)cccc3Cl)s2)cc(N2CCN(CCO)CC2)n1 [Dasatinib] + CC(=O)Nc1cccc(-n2c(=O)n(C3CC3)c(=O)c3c(Nc4ccc(I)cc4F)n(C)c(=O)c(C)c32)c1 [Trametinib] (first compound max 2 µM, 7x7, partner max 1 µM) | 0.0359 | 0.955 | 0.103 | 0.748 | 0.123 | 0.425
COc1cc2ncnc(Nc3ccc(F)c(Cl)c3)c2cc1OCCCN1CCOCC1 [Gefitinib] + CC(C)n1c(=O)n(C)c2cnc3cc(F)c(-c4ccc(OCCCN5CCCCC5)nc4)cc3c21 [AZD1390] (first compound max 10 µM, 7x7, partner max 0.3 µM) | -0.0387 | 0.121 | 0.158 | 0.428 | 0.151 | 0.456
CS(=O)(=O)CCNCc1ccc(-c2ccc3ncnc(Nc4ccc(OCc5cccc(F)c5)c(Cl)c4)c3c2)o1 [Lapatinib] + NC1(c2ccc(-c3nc4ccn5c(=O)[nH]nc5c4cc3-c3ccccc3)cc2)CCC1 [MK-2206] (first compound max 10 µM, 7x7, partner max 10 µM) | 0.005 | 0.852 | 0.389 | – | 0.52 | –
CC1(C)CCC(CN2CCN(c3ccc(C(=O)NS(=O)(=O)c4ccc(NCC5CCOCC5)c([N+](=O)[O-])c4)c(Oc4cnc5[nH]ccc5c4)c3)CC2)=C(c2ccc(Cl)cc2)C1 [Venetoclax] + Cc1cc2ncnn2cc1Nc1ncc2c(n1)n(C1CCOCC1)c(=O)n2C [AZD7648] (first compound max 1 µM, 7x7, partner max 10 µM) | – | – | 0.221 | 0.381 | 1 | 0.131
CC1(C)CCC(CN2CCN(c3ccc(C(=O)NS(=O)(=O)c4ccc(NCC5CCOCC5)c([N+](=O)[O-])c4)c(Oc4cnc5[nH]ccc5c4)c3)CC2)=C(c2ccc(Cl)cc2)C1 [Venetoclax] + Cn1cnc2c(F)c(Nc3ccc(Br)cc3Cl)c(C(=O)NOCCO)cc21 [Selumetinib] (first compound max 1 µM, 7x7, partner max 3 µM) | – | – | 0.0631 | 0.163 | 1 | 0.313
